“And” between values parts separate entries of the source, which are not always exact repeats. Equal values may be shown once. Read-outs that look alike come from different tables or passages of the source.
Experiments:
α1-adrenoceptor = test: Competitive radioligand-binding assay, [3H]prazosin; set-up: species or system rat
Protocol: 10 mM stock solutions of test compounds were prepared in DMSO. Serial dilutions of compounds were prepared in 96-well microplate in assay buffers using an automated pipetting system epMotion 5070 (Eppendorf, Poland). Each compound was tested in 6 concentrations of 1.0E-05 to 1.0E-10 M (final concentration).
Affinity towards α1- and α2-adrenoceptors was evaluated using the competitive radioligand-binding assay. Experiments were conducted in the rat cerebral cortex. Radioligand [3H]prazosin (84,2 Ci/mmol, α1-adrenoceptor, PerkinElmer, Poland, NET823001MC) and [3H]clonidine (70.5 Ci/mmol, α2-adrenoceptor, PerkinElmer, Poland, NET613250UC) were used. The membrane preparation and the assay procedure were carried out accordingly as previously published. Radioactivity was counted on the MicroBeta2 scintillation counter (PerkinElmer, Poland). Data were fitted to a one-site curve-fitting equation with Prism 8 (GraphPad Software, USA), and Ki values were estimated from the Cheng–Prusoff equation.

α2A-adrenoceptor = molecular target: T1, α2A-adrenoceptor (Homo sapiens, UniProt P08913); test: Intrinsic activity, Tango beta-lactamase reporter assay; format: cell-based
T1 sequence (P08913 1-465): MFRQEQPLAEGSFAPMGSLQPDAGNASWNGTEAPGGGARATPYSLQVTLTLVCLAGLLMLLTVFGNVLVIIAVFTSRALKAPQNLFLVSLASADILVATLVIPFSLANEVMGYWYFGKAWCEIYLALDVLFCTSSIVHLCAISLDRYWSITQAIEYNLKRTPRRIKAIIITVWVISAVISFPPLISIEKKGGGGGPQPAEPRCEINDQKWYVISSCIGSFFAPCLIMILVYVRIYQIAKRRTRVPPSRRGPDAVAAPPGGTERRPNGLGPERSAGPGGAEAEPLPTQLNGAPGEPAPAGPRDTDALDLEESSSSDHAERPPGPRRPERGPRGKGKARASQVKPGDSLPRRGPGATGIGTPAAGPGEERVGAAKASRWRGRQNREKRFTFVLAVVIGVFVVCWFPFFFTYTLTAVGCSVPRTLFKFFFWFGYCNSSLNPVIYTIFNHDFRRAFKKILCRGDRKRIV
Protocol: The intrinsic activity at α2A-adrenoceptor was assessed by the Tango assay technology that uses a mammalian-optimized beta-lactamase (bla) reporter gene combined with an FRET-enabled substrate to provide reliable and sensitive detection in cells. Cells are loaded with an engineered fluorescent substrate containing two fluorophores, coumarin, and fluorescein. In the absence of bla expression, the substrate molecule remains intact. In this state, excitation of the coumarin results in a transfer of fluorescence resonance energy to the fluorescein moiety and emission of green fluorescent light. However, in the presence of bla expression, the substrate is cleaved, separating the fluorophores and disrupting energy transfer. Excitation of the coumarin in the presence of bla enzyme activity results in a blue fluorescence signal.
Intrinsic activity assay was performed according to the manufacturer of the assay kit (Invitrogen, Life Technologies). Cells were harvested and resuspended in an assay medium at a density of 312,500 cells/ml. 32 μL per well of cell suspension was added to the test compound wells, the unstimulated control wells, and the stimulated control wells, and incubated for 16–24 h. To perform an agonist assay, 8 μL of 5 × of agonist in the assay medium was added to the cells. […] Then, the agonist and antagonist plates were incubated in a humidified incubator at 37 °C/5% CO2 for 5 h. After the incubation, 8 μL of LiveBLAzer™-FRET B/G substrate mixture (CCF4-AM) was loaded into cells in the absence of direct strong lighting, covered, and incubated at room temperature for 2 h.

[1] = Blood pressure of anaesthetized normotensive rats; format: in vivo, rat; conditions: thiopental-anaesthetized rats
Protocol: Eighteen normotensive rats were anaesthetized with thiopental (70 mg/kg) by ip injection. The left carotid artery was cannulated with tubing filled with heparin solution in saline to facilitate pressure measurements using Apparatus PowerLab 4/35 (ADInstruments, Australia). Blood pressure was measured: before ip administration of 4-OH-Guanabenz at the doses of 2 or 5 or 10 mg/kg b.w. or water – time 0 min (control pressure) and continuously during the next 60 min.

[2] = [3H] prazosin, rat cerebral cortex, mean ± SEM, n = 3, read-out: Ki
[3] = ADRAA2A, agonist, concentration 1e-8
[4] = ADRAA2A, agonist, concentration 1e-7
[5] = ADRAA2A, agonist, concentration 1e-6

Structure (SMILES): Cl.N=C(N)NN=Cc1c(Cl)cc(O)cc1Cl [4-OH-Guanabenz, 2-[(2,6-Dichloro-4-hydroxyphenyl)methylene]hydrazinecarboximidamide Hydrochloride]
- Ki (α1-adrenoceptor; [2]): 3860 ± 1010 nM
- Intrinsic activity at α2A-adrenoceptors (in words) (α2A-adrenoceptor): Partial agonist
- % of max response (α2A-adrenoceptor; [3]): -0.7437% and -0.7189% and -0.7313% and -0.7282%
- % of max response (α2A-adrenoceptor; [4]): 2.887% and 2.799% and 3.482%
- % of max response (α2A-adrenoceptor; [5]): 33.4463% and 31.1405% and 34.9698%
- % of max response (α2A-adrenoceptor; ADRAA2A, agonist, concentration 1e-5): 37.4215% and 35.9932% and 36.5487%
- EC50 (α2A-adrenoceptor; agonist assay): 316 nM
- activity relative to full agonist brimonidine (α2A-adrenoceptor; agonist assay, maximal activity reached): 30%
- Emax (α2A-adrenoceptor; read-out: % of max response, ADRAA2A, agonist, concentration 1e-7): 2.71%
- Emax (α2A-adrenoceptor; read-out: % of max response, ADRAA2A, agonist, concentration 1e-6): 28.8%
- Emax (α2A-adrenoceptor; read-out: % of max response, ADRAA2A, agonist, concentration 1e-5): 34.6%
- effect on diastolic pressure (in words) ([1]; 10 mg/kg b.w., 10th minute after administration): short-term increase
- effect on blood pressure (in words) ([1]; single dose 2 or 5 mg/kg b.w., vs water): not significantly different

Structure (SMILES): N=C(N)N/N=C/c1c(Cl)cccc1Cl [Guanabenz]
- Ki (α1-adrenoceptor; ADRA1, experiment 1, 2, 3, read-out: Ki, single experiments): 259 nM and 250 nM and 251 nM
- Ki (α1-adrenoceptor; [2]): 253 nM
- Affinity towards α1-adrenoceptors (α1-adrenoceptor; summary table): +
- Intrinsic activity at α2A-adrenoceptors (in words) (α2A-adrenoceptor): Full agonist
- % of max response (α2A-adrenoceptor; ADRAA2A, agonist, concentration 1e-11): -0.6454% and -0.8183% and -1.252% and -0.7319%
- % of max response (α2A-adrenoceptor; ADRAA2A, agonist, concentration 1e-10): -1.12% and -1.114% and -1.036% and -1.117%
- % of max response (α2A-adrenoceptor; ADRAA2A, agonist, concentration 1e-9): 0.5496% and 0.2076% and -0.728% and 0.3786%
- % of max response (α2A-adrenoceptor; [3]): 28.3106% and 18.1657% and 31.6251%
- Emax (α2A-adrenoceptor; ADRAA2A, agonist, concentration 1e-8, read-out: % of max response): 34.9%
- % of max response (α2A-adrenoceptor; [4]): 69.7622% and 66.4917% and 70.9692%
- Emax (α2A-adrenoceptor; ADRAA2A, agonist, concentration 1e-7, read-out: % of max response): 72.2%
- % of max response (α2A-adrenoceptor; [5]): 80.6636% and 82.7247% and 76.4282%
- Emax (α2A-adrenoceptor; ADRAA2A, agonist, concentration 1e-6, read-out: % of max response): 72.2%

Reference: article PMC10539439 (Pharmacological Reports, 2023)
